Measurements reported in patent US20060018846A1, “Animo substituted hydroxyphenyl benzophenone derivatives” (priority 2002, published 2006).

Experiments:
[1] = UV spectrum (absorption maximum and molar extinction); assay type: physicochemical
Source text: UV Spectrum (in Dioxan) • Maximum at 359 nm; e=34724
UV Spectrum (in Dioxan): • Maximum at 360 nm; e=37900
UV Spectrum (in Dioxan): • Maximum at 359 nm; e=35080
UV-Spectrum in Dioxan: Max. 351 nm, mol Ext. 65551
UV Spectrum in Ethanol: Max. 354 nm, mol. Ext. 65296

[2] = Solubility in Finsolve TN (C 12-15 alkylbenzoate); assay type: physicochemical
Source text: It has a good solubility for example in Finsolve TN (C 12-15 alkylbenzoate)>10%.
The obtained compound is an amorphous, yellow powder Solubility in Finsolve TN>30%

| Compound | UV spectrum: 2. Maximum (wavelength) ([1]; in Dioxan) [nm] | UV spectrum: Maximum (wavelength; 1. Maximum where two are given) ([1]; in Dioxan) [nm] | UV spectrum: e / mol Ext. at the maximum (1. Maximum where two are given) ([1]; in Dioxan) | UV spectrum: e at 2. Maximum ([1]; in Dioxan) | Solubility in Finsolve TN (C 12-15 alkylbenzoate) [2] [%] | UV spectrum: Max. (wavelength) ([1]; in Ethanol) [nm] | UV spectrum: mol. Ext. ([1]; in Ethanol) |
| --- | --- | --- | --- | --- | --- | --- | --- |
| CCN(CC)c1ccc(C(=O)c2ccccc2C(=O)Nc2ccc(-c3nc4ccc(C)cc4s3)cc2)c(O)c1 [Example 2] | 360 | 336 | 57318 | 49032 |  |  |  |
| CCN(CC)c1ccc(C(=O)c2ccccc2C(=O)Nc2ccc(C(N)=O)cc2)c(O)c1 [Example 4] |  | 358 | 34848 |  |  |  |  |
| CCN(CC)c1ccc(C(=O)c2ccccc2C(=O)OC2CC(C)CCC2C(C)C)c(O)c1 (centres unmarked) [Example 6] |  | 351 | 38565 |  |  |  |  |
| CCN(CC)c1ccc(C(=O)c2ccccc2C(=O)Nc2ccccc2)c(O)c1 [Example 8] |  | 359 | 34724 |  |  |  |  |
| CCN(CC)c1ccc(C(=O)c2ccccc2C(=O)N2CCOCC2)c(O)c1 [Example 9] |  | 360 | 37900 |  |  |  |  |
| CCN(CC)c1ccc(C(=O)c2ccccc2C(=O)N(CCO)CCO)c(O)c1 [Example 10] |  | 359 | 35080 |  |  |  |  |
| CCN(CC)c1ccc(C(=O)c2ccccc2C(=O)OC/C=C/COC(=O)c2ccccc2C(=O)c2ccc(N(CC)CC)cc2O)c(O)c1 [Example 11] |  | 351 | 65551 |  | > 10 |  |  |
| CCN(CC)c1ccc(C(=O)c2ccccc2C(=O)OCC(C)(C)COC(=O)c2ccccc2C(=O)c2ccc(N(CC)CC)cc2O)c(O)c1 [Example 12] |  |  |  |  | > 30 | 354 | 65296 |
